{"source": "patent US6069130A", "about": "“Ketoheterocyclic inhibitors of factor Xa” (COR Therapeutics, Inc., priority 1995, dated 2000)", "key": {"[1]": {"tested_on": "thrombus growth in abdominal vena cava", "experiment": "rabbit deep vein thrombosis model, inhibition of thrombus growth", "assay_type": "in vivo", "details": "for of Thrombosis (inhibition of thrombus growth): rabbit", "text": "(§1) Rabbits were anesthetized with I.M. injections of Ketamine, Xylazine, and Acepromazine cocktail. A standardized protocol consisted of insertion of a thrombogenic cotton thread and copper wire apparatus into the abdominal vena cava of the anesthetized rabbit. A non-occlusive thrombus was allowed to develop in the central venous circulation and inhibition of thrombus growth was used as a measure of the antithrombotic activity of the studied compounds. Test agents or control saline were administered through a marginal ear vein catheter. A femoral vein catheter was used for blood sampling prior to and during steady state infusion of test compound. Initiation of thrombus formation begins immediately after advancement of the cotton thread apparatus into the central venous circulation. Test compounds were administered from time=30 min to time=150 min at which the experiment was terminated. The rabbits were euthanized and the thromidus excised by surgical dissection and characterized by weight and histology. Blood samples were analyzed for changes in hematological and coagulation parameters."}, "[2]": {"details": "rabbit, in vivo", "text": "as §1"}, "[3]": {"experiment": "coagulation parameters (aPTT, PT) in rabbit venous thrombosis model", "assay_type": "in vivo", "details": "for fold increase over baseline PT / fold increase over baseline aPTT: rabbit, steady state, mean ± SD", "text": "as §1"}, "[4]": {"details": "highest dose (100 μg/kg+2.57 μg/kg/min)"}}}
{"molecule": "NC(N)=NCCCC(N)C(=O)NCC(=O)NC(CCCN=C(N)N)C(=O)c1nccs1", "note": "[H-D-Arg-Gly-Arg-thiazole, (D)-Arg-Gly-Arg-thiazole]", "values": [{"measurement": "antithrombotic efficacy in the rabbit venous thrombosis model (in words)", "setting": "[1]; at the higher doses evaluated", "result": "demonstrated antithrombotic efficacy at the higher doses evaluated"}, {"measurement": "of Thrombosis (inhibition of thrombus growth)", "setting": "[1]; i.v. 50 μg/kg + 1.28 μg/kg/min", "result": -7.84}, {"measurement": "of Thrombosis (inhibition of thrombus growth)", "setting": "[1]; i.v. 75 μg/kg + 1.93 μg/kg/min", "result": 42.955}, {"measurement": "of Thrombosis (inhibition of thrombus growth)", "setting": "[1]; i.v. 100 μg/kg + 2.57 μg/kg/min", "result": 117.72}, {"measurement": "effects on hematological parameters as compared to saline controls (in words)", "setting": "[2]", "result": "no significant effects"}, {"measurement": "effect on PT prolongation (in words)", "setting": "[3]; [4]", "result": "no significant effect"}, {"measurement": "effect on aPTT prolongation (in words)", "setting": "[3]; [4]", "result": "no significant effect"}, {"measurement": "fold increase over baseline PT", "setting": "[3]; 50 μg/kg + 1.28 μg/kg/min", "result": "1.00 ± 0.00", "unit": "fold"}, {"measurement": "fold increase over baseline aPTT", "setting": "[3]; 50 μg/kg + 1.28 μg/kg/min", "result": "1.00 ± 0.03", "unit": "fold"}, {"measurement": "fold increase over baseline PT", "setting": "[3]; 75 μg/kg + 1.93 μg/kg/min", "result": "1.00 ± 0.00", "unit": "fold"}, {"measurement": "fold increase over baseline aPTT", "setting": "[3]; 75 μg/kg + 1.93 μg/kg/min", "result": "1.02 ± 0.03", "unit": "fold"}, {"measurement": "fold increase over baseline PT", "setting": "[3]; 100 μg/kg + 2.57 μg/kg/min", "result": "0.83 ± 0.00", "unit": "fold"}, {"measurement": "fold increase over baseline aPTT", "setting": "[3]; 100 μg/kg + 2.57 μg/kg/min", "result": "1.08 ± 0.02", "unit": "fold"}]}
